The target in test [1] is T1, Corticotropin-releasing factor receptor 1 (Mus musculus, UniProt P35347).
T1 sequence (P35347 whole entry): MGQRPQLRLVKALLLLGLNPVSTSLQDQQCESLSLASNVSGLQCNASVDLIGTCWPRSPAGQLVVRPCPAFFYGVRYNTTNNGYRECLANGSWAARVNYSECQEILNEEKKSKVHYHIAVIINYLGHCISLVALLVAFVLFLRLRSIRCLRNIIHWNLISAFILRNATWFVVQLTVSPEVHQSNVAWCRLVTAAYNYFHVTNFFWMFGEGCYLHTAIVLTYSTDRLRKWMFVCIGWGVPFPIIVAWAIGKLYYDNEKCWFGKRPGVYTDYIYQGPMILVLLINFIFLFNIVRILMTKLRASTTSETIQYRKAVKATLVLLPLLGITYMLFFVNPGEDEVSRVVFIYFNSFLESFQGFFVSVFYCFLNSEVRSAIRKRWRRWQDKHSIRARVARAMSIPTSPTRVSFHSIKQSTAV
Description: In vitro effective concentration for mouse corticotropin releasing factor 1 receptor.

The target in test [2] is Corticotropin-releasing factor receptor 2 (Mus musculus, UniProt Q60748). Description: In vitro effective concentration for mouse corticotropin releasing factor 2 receptor.
Chain of Corticotropin-releasing factor receptor 2 (Q60748 whole entry): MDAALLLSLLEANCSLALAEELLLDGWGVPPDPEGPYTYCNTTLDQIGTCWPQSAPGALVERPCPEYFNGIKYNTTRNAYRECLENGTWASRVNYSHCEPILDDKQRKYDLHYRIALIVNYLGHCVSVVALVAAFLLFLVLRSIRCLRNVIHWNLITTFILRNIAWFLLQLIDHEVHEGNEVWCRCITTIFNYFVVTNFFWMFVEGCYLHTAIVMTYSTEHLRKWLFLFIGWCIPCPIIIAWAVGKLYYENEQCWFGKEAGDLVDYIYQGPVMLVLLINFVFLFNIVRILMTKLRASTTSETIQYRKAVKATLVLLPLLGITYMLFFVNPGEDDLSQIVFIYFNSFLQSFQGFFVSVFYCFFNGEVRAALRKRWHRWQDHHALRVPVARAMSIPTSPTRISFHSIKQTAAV
The target in test [3] is T2, Corticotropin-releasing factor receptor 1 (Mus musculus) (UniProt P35347).
T2 sequence (whole entry): T1 sequence (P35347 whole entry)
Description: In vitro agonistic activity against mouse corticotropin releasing factor 1 receptor. The format is functional.

Test [4] concerns the target Corticotropin-releasing factor receptor 2 (Mus musculus) (UniProt Q60748). Description: In vitro agonistic activity against mouse corticotropin releasing factor 2 receptor. Type of test: functional.
For a further test, the species on record is Mus musculus. Put plainly: Selectivity ratio of EC50s for mouse corticotropin releasing factor receptors 1 and 2.

Chain of Corticotropin-releasing factor receptor 2 (Mus musculus) (Q60748 whole entry): as above

For the compound `CC[C@H](C)[C@H](NC(=O)[C@@H](NC(=O)[C@H](CC(=O)O)NC(=O)[C@H](CC(C)C)NC(=O)[C@H](CC(C)C)NC(=O)[C@H](CC(C)C)NC(=O)[C@H](CCCN=C(N)N)NC(=O)[C@H](CC(N)=O)NC(=O)[C@H](CC(N)=O)NC(=O)[C@H](C)NC(=O)[C@H](C)NC(=O)[C@H](CCC(N)=O)NC(=O)[C@H](CCC(N)=O)NC(=O)[C@H](CCCCN)NC(=O)[C@H](CCC(=O)O)NC(=O)[C@H](CCCCN)NC(=O)[C@H](CCC(=O)O)NC(=O)[C@H](CCC(N)=O)NC(=O)[C@H](CCCCN)NC(=O)[C@H](CCC(=O)O)NC(=O)[C@@H](NC(=O)[C@H](CCC(=O)O)NC(=O)[C@@H](NC(=O)[C@H](CCSC)NC(=O)[C@H](CCCCN)NC(=O)[C@H](CCCN=C(N)N)NC(=O)[C@H](CC(C)C)NC(=O)[C@H](CC(C)C)NC(=O)[C@H](Cc1c[nH]c2ccccc12)NC(=O)[C@@H](NC(=O)[C@@H]1CCCN1C(=O)[C@H](CC(C)C)NC(=O)[C@H](CC(=O)O)NC(=O)[C@@H](NC(=O)[C@H](CO)NC(=O)[C@@H](NC(=O)[C@@H]1CCCN1C(=O)[C@@H]1CCCN1C(=O)CNC(=O)[C@@H]1CCC(=O)N1)[C@@H](C)CC)[C@@H](C)CC)[C@@H](C)CC)[C@@H](C)CC)[C@@H](C)CC)[C@@H](C)O)C(=O)O`, the figures for the concentration giving a half-maximal response (EC50) in test [1] and in test [2] were 562 nM and 23.4 nM, respectively. Also, the Emax was found to be 99% in test [3] and 94% in test [4]. The Selectivity in the test listed under Mus musculus worked out at 24.

Consider `CC[C@H](C)[C@H](NC(=O)[C@@H](NC(=O)[C@H](CC(=O)O)NC(=O)[C@H](CC(C)C)NC(=O)[C@H](CC(C)C)NC(=O)[C@H](CC(C)C)NC(=O)[C@H](CCCN=C(N)N)NC(=O)[C@H](CC(N)=O)NC(=O)[C@H](CC(N)=O)NC(=O)[C@H](C)NC(=O)[C@H](C)NC(=O)[C@H](CCC(N)=O)NC(=O)[C@H](CCC(N)=O)NC(=O)[C@H](CCCCN)NC(=O)[C@H](CCC(=O)O)NC(=O)[C@H](CCCCN)NC(=O)[C@H](CCC(=O)O)NC(=O)[C@H](CCC(N)=O)NC(=O)[C@H](CCCCN)NC(=O)[C@H](CCC(=O)O)NC(=O)[C@@H](NC(=O)[C@H](CCC(=O)O)NC(=O)[C@@H](NC(=O)[C@H](CCSC)NC(=O)[C@H](CCCCN)NC(=O)[C@H](CCCN=C(N)N)NC(=O)[C@H](CC(C)C)NC(=O)[C@H](CC(C)C)NC(=O)[C@@H](NC(=O)[C@H](Cc1ccc(O)cc1)NC(=O)[C@@H]1CCCN1C(=O)[C@H](CC(C)C)NC(=O)[C@H](CC(=O)O)NC(=O)[C@@H](NC(=O)[C@H](CO)NC(=O)[C@@H](NC(=O)[C@@H]1CCCN1C(=O)[C@@H]1CCCN1C(=O)CNC(=O)[C@@H]1CCC(=O)N1)[C@@H](C)CC)[C@@H](C)CC)[C@@H](C)O)[C@@H](C)CC)[C@@H](C)CC)[C@@H](C)O)C(=O)O`, for which the values for the EC50 in test [1] and in test [2] were 189 nM and 8.8 nM, respectively. The results for the Emax in test [3] and in test [4] were 99% and 100%, respectively. In the test listed under Mus musculus, the Selectivity is 21.

Values taken from ChEMBL document CHEMBL1139487, “Discovery of corticotropin releasing factor 2 receptor selective sauvagine analogues for treatment of skeletal muscle atrophy” (J Med Chem, 2005).
